# Source: PubChem BioAssay (NCI)
# Values joined by “and” are separate entries in the source; they are usually repeats but may differ in a detail not shown here. Equal entries are not always repeated.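 Following 48 hours of exposure in 96-well plates, responses at five concentrations were used to interpolate endpoints linearly. Here, GI50 denotes the concentration required for 50% inhibition of growth. The concentration for full growth arrest is given as TGI.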
# What was measured:
# Assay in all cases: NCI anticancer screen, dose series, 48 h
# A549 NSCLC = tested on: A549 NSCLC
# HOP-92 NSCLC = tested on: HOP-92 NSCLC
# K-562 leukemia = tested on: K-562 leukemia
# MDA-MB-231 breast = tested on: MDA-MB-231 breast
# MOLT-4 leukemia = tested on: MOLT-4 leukemia
# NCI-H226 lung = tested on: NCI-H226 lung
# OVCAR-8 ovarian = tested on: OVCAR-8 ovarian
# SF-295 CNS = tested on: SF-295 CNS
# SK-OV-3 ovarian = tested on: SK-OV-3 ovarian
# TK-10 renal = tested on: TK-10 renal
SMILES,GI50 (A549 NSCLC),TGI (A549 NSCLC),GI50 (HOP-92 NSCLC),TGI (HOP-92 NSCLC),GI50 (K-562 leukemia),TGI (K-562 leukemia),GI50 (MDA-MB-231 breast),TGI (MDA-MB-231 breast),GI50 (MOLT-4 leukemia),TGI (MOLT-4 leukemia),GI50 (NCI-H226 lung),TGI (NCI-H226 lung),GI50 (OVCAR-8 ovarian),TGI (OVCAR-8 ovarian),GI50 (SF-295 CNS),TGI (SF-295 CNS),GI50 (SK-OV-3 ovarian),TGI (SK-OV-3 ovarian),GI50 (TK-10 renal),TGI (TK-10 renal)
CC(C)(C)OC(=O)n1cc(CNC(=S)Nc2ccccc2)c2ccccc21,10.6 µM,33.1 µM,8.94 µM,25.7 µM,8.73 µM,70.1 µM,15.5 µM,28.8 µM,3.88 µM,> 100 µM,14.3 µM,30.7 µM,16.9 µM,35.4 µM,6.04 µM,23.4 µM,26.4 µM,90.1 µM,14.6 µM,53.9 µM
CN=C(N)N/N=C(\c1ccccc1)c1ccc(Br)cc1,0.394 µM,10.1 µM,0.3 µM,2.9 µM,0.294 µM,6.31 µM,0.358 µM,2.09 µM,0.362 µM,7.3 µM,1.09 µM,11.8 µM,0.369 µM,5.16 µM,0.287 µM,1.48 µM,0.462 µM,12.3 µM,0.709 µM,8.47 µM
O=C(c1ccc2ccccc2c1)c1c(C(F)(F)F)n([O-])c2cc(Cl)c(Cl)cc2[n+]1=O,1.63 µM,2.98 µM,1.55 µM,3.18 µM,1.56 µM,3.12 µM,1.49 µM,2.82 µM,1.14 µM,2.84 µM,1.46 µM,2.92 µM,1.61 µM,3.27 µM,1.66 µM,3.06 µM,1.58 µM,3.15 µM,1.77 µM,3.15 µM
NC(CO)Cc1cnc[nH]1 (stereo not drawn),> 100 µM,> 100 µM,–,> 10 µM,> 100 µM,> 100 µM,–,> 100 µM,> 100 µM,> 100 µM,> 100 µM,> 100 µM,> 100 µM,> 100 µM,> 100 µM,> 100 µM,> 100 µM,> 100 µM,> 100 µM,> 100 µM
COC(=O)C(=O)CC(=O)CCn1ncc(Cl)c(Cl)c1=O,–,36.5 µM,–,28.2 µM,–,9.54 µM,7.88 µM,20.7 µM,–,22.1 µM,–,39.3 µM,–,27.9 µM,–,23 µM,–,40.8 µM,–,> 85.5 µM
C[C@@H]1CC[C@@H]2[C@@H]1[C@H](OC(=O)/C=C/c1ccccc1)[C@]1(c3ccccc3)C[C@@H](OC(=O)CO)[C@@]2(C)O1,14.8 µM,33.8 µM,6.52 µM,20.1 µM,7.76 µM,> 100 µM,16.5 µM,34.2 µM,6.86 µM,33.9 µM,13.2 µM,29 µM,6.71 µM,34.8 µM,12.8 µM,32.3 µM,23.4 µM,55.6 µM,18.2 µM,41.8 µM
O=C(Nc1nc2ccccc2s1)OCC(F)(F)F,> 100 µM,> 100 µM,41.2 µM,> 100 µM,> 100 µM,> 100 µM,> 100 µM,> 100 µM,> 100 µM,> 100 µM,> 100 µM,> 100 µM,> 100 µM,> 100 µM,> 100 µM,> 100 µM,> 100 µM,> 100 µM,> 100 µM,> 100 µM
Cc1ccc2c(C(C[N+](=O)[O-])c3cccs3)c(-c3ccccc3)[nH]c2c1 (stereo not drawn),2.73 µM,15.1 µM,4.03 µM,9.24 µM,1.16 µM,> 33.3 µM,1.65 µM,6.31 µM,1.53 µM,> 33.3 µM,3.38 µM,8.61 µM,3.55 µM,> 33.3 µM,1.15 µM,4.54 µM,3.44 µM,19.7 µM,7.46 µM,18.5 µM
Cc1nn(-c2ccc(F)cc2)c2ncnc(Nc3ccc(NC(=O)Nc4ccc(Cl)c(C(F)(F)F)c4)cc3)c12,1.8 µM,4.26 µM,1.73 µM,4.59 µM,1.75 µM,> 100 µM,2.03 µM,5.55 µM,2.67 µM,22.2 µM,2.31 µM,5.99 µM,2.87 µM,10 µM,2.25 µM,6.17 µM,3.8 µM,14.5 µM,2.85 µM,10.4 µM
COc1ccc(C(=O)Nc2ncc(Cc3ccc(Cl)cc3)s2)cc1,0.0733 µM,> 100 µM,3.71 µM,> 100 µM,0.041 µM,> 100 µM,0.176 µM,47.3 µM,0.064 µM,> 100 µM,0.0771 µM,> 64.3 µM,0.117 µM,> 100 µM,0.0561 µM,1.97 µM,0.15 µM,> 100 µM,3.94 µM,> 100 µM
O=C(c1cccs1)c1c(C(F)(F)F)n([O-])c2ccccc2[n+]1=O,1.36 µM,3.78 µM,0.99 µM,2.28 µM,1.64 µM,8.77 µM,0.639 µM,1.53 µM,2.32 µM,4.19 µM,1.05 µM,3.12 µM,0.601 µM,1.94 µM,0.941 µM,2.43 µM,2.11 µM,7.56 µM,1.6 µM,5.43 µM
CCn1c(-c2nonc2N)nc2c(C#CCN)ncc(OCCCN)c21,> 25 µM,> 25 µM,4.64 µM,> 25 µM,> 25 µM,> 25 µM,> 25 µM,> 25 µM,> 25 µM,> 25 µM,> 25 µM,> 25 µM,> 25 µM,> 25 µM,> 25 µM,> 25 µM,> 25 µM,> 25 µM,> 25 µM,> 25 µM
Clc1ccccc1C(c1ccccc1)(c1ccccc1)n1ccnc1,2.43 µM,13.3 µM and 29.3 µM,1.57 µM,4.3 µM and 37.9 µM,–,> 42.1 µM,2.13 µM,6.72 µM and 38.6 µM,1.96 µM,6.87 µM and 57.7 µM,3.13 µM,17.7 µM,2.69 µM,20 µM and 26.3 µM,1.94 µM,9.67 µM and 23.7 µM,3.71 µM,13.7 µM and 29.2 µM,3.88 µM,13.5 µM and 30.9 µM
COc1cc2ncn(-c3cc(OCc4ccccc4Cl)c(C(N)=O)s3)c2cc1OC,0.29 µM,> 10.8 µM,3.8 µM,> 25 µM,0.114 µM,> 25 µM,0.247 µM,8.13 µM,0.118 µM,> 25 µM,0.801 µM,> 25 µM,0.23 µM,> 20.7 µM,0.186 µM,> 11.2 µM,0.274 µM,9.32 µM,3.04 µM,> 22 µM
CNC(=O)c1ccccc1CC1(O)c2ccccc2Oc2ccccc21,16.5 µM,> 100 µM,7.52 µM,44.4 µM,6.78 µM,> 100 µM,15 µM,83.3 µM,36.4 µM,> 100 µM,11.3 µM,34.8 µM,29.1 µM,> 100 µM,20.7 µM,> 100 µM,24 µM,87.3 µM,26.6 µM,89.9 µM
O=C1/C(=C/c2ccc(F)cc2)CCOc2ccc([N+](=O)[O-])cc21,8.47 µM,23.7 µM,4.45 µM,40.2 µM,0.964 µM,> 100 µM,13.3 µM,31.9 µM,2.49 µM,6.02 µM,20.1 µM,39.6 µM,2.68 µM,9.24 µM,3.08 µM,9.23 µM,17 µM,32.6 µM,3.88 µM,16.1 µM
O=C(CSc1nc2ccc([N+](=O)[O-])cc2[nH]1)Nc1ccc(F)c(Cl)c1,2.48 µM,12.6 µM,0.346 µM,2.72 µM,2.44 µM,> 42.3 µM,1.91 µM,5.59 µM,2.7 µM,19.9 µM,2.15 µM,9.57 µM,3.04 µM,> 34.4 µM,1.81 µM,5.5 µM,1.42 µM,4.79 µM,4.08 µM,15.9 µM
CN(C)CC(=O)N1CCC(c2ccc(NC(=O)c3ncc(C#N)[nH]3)c(C3=CCCCC3)c2)CC1,5 µM,17.2 µM,0.21 µM,2.74 µM,3.21 µM,12 µM,8.31 µM,23.2 µM,3.72 µM,12.7 µM,11.3 µM,24.2 µM,8.34 µM,24 µM,3.75 µM,15.7 µM,5.33 µM,17.4 µM,7.86 µM,20.6 µM
O=C(/C=C/c1ccc(Cl)cc1)c1ccc(Cl)cc1Cl,8.63 µM,17.5 µM,9.39 µM,19.4 µM,1.68 µM,14.2 µM,10.9 µM,22.1 µM,0.915 µM,2.12 µM,9.41 µM,18.1 µM,8.65 µM,21.5 µM,10.6 µM,21.4 µM,6.84 µM,14.5 µM,7.42 µM,14 µM
Cc1ccn2c3c(c(C(=O)O)c2c1)C(=O)c1ccccc1C3=O,1.77 µM,4.4 µM,> 100 µM,> 100 µM,> 100 µM,> 100 µM,11.8 µM,> 100 µM,> 100 µM,> 100 µM,2.46 µM,17.4 µM,> 100 µM,> 100 µM,2.25 µM,8.68 µM,> 100 µM,> 100 µM,> 100 µM,> 100 µM
O=C(NNc1nc2c(F)cccc2n2cccc12)c1cnccn1,0.466 µM,36 µM,0.556 µM,45.1 µM,0.478 µM,> 100 µM,0.834 µM,24.8 µM,0.302 µM,> 100 µM,0.522 µM,7 µM,0.414 µM,> 81.6 µM,0.401 µM,16 µM,0.527 µM,27.8 µM,5.05 µM,60.9 µM
N#CC(=C1SCS1)[N+](=O)[O-],4 µM,40.6 µM,0.365 µM,10.4 µM,0.371 µM,> 100 µM,4.94 µM,20.4 µM,0.639 µM,6.5 µM,16.7 µM,62.8 µM,3.16 µM,13.8 µM,4.82 µM,44.4 µM,5.35 µM,43.3 µM,3.68 µM,13.4 µM
COc1ccc(C(=S)N2CCN(c3cccc(Cl)c3)CC2)cc1,> 100 µM,> 100 µM,17.2 µM,> 100 µM,72.8 µM,> 100 µM,43.9 µM,> 100 µM,> 100 µM,> 100 µM,> 100 µM,> 100 µM,> 100 µM,> 100 µM,95.9 µM,> 100 µM,> 100 µM,> 100 µM,> 100 µM,> 100 µM
COC1(C(=O)N2Cc3nc(Cl)nc(N[C@H](C)c4cc(N)cc(C(F)(F)F)c4)c3C2)CCOCC1,21.1 µM,> 100 µM,0.356 µM,21 µM,0.888 µM,> 68.4 µM,15.9 µM,31.3 µM,9.05 µM,50.5 µM,18.2 µM,72.2 µM,23.1 µM,> 88.5 µM,12.5 µM,26.2 µM,17.7 µM,58.5 µM,1.23 µM,45.8 µM
C=CC(=O)N[C@H]1C=C(C)c2c(-c3cnc4ccccc4c3)c3c(N)ncnc3n2C1,11.6 µM,> 67 µM,2.46 µM,15.7 µM,24.8 µM,> 100 µM,9.57 µM,27 µM,24.5 µM,> 100 µM,8.85 µM,> 68.1 µM,16.7 µM,> 100 µM,22.9 µM,68 µM,0.171 µM,4.2 µM,0.0478 µM,7.88 µM
